{
  "source": "patent US20240003884A1",
  "about": "“METHODS AND COMPOSITIONS USING NON-INVASIVE PLASMA GLYCOMIC AND METABOLIC BIOMARKERS OF POST-TREATMENT CONTROL OF HIV” (priority 2020, published 2024)",
  "key": {"[1]": {"test_system": "J-Lat 5A8 cells (latent HIV provirus)", "details": "J-Lat clone 5A8", "experimental": "(§1) (FIG. 2A) JLat 5A8 or 10.6 clones were stimulated with appropriate stimuli in the presence or absence of L-glutamic acid or vehicle control (cell culture suitable HCl solution). Geometric mean fluorescence intensity (MFI) of HIV-regulated GFP expression was measured by flow cytometry. Cell viability was determined by LIVE/DEAD aqua staining. (FIG. 2B) J-Lat 5A8 cells (n=3) and (FIG. 2C) J-Lat 10.6 cells (n=3), were treated with PMA/I (2 nM/500 nM), ImmunoCult Human CD3/CD28 T Cell Activator (25 μl per 10^6 cells), or TNFα (10 ng/ml) in the presence or absence of L-glutamic acid (5 mM) or appropriate control. Bar graphs display mean±SD values, and statistical comparisons were performed using two-tailed unpaired t-tests. (FIG. 2D) THP-1 cells were differentiated into macrophage-like cells using PMA. Cells were then treated with L-glutamic acid (5 mM), Pyruvic acid (2 mM), or appropriate controls for 2 hours prior to LPS/IFNγ stimulation for 5 hours. […] Bar graphs display mean±SD, and statistical comparisons were performed using two-tailed unpaired t-tests. […] Bar graphs display mean±SD, and statistical comparisons were performed using two-tailed unpaired t-tests.\nBar graphs display mean±SD values, and statistical comparisons were performed using two-tailed unpaired t-tests."}, "[2]": {"test_system": "J-Lat 10.6 cells (latent HIV provirus)", "details": "J-Lat clone 10.6", "experimental": "as §1"}, "[3]": {"test_system": "THP-1 derived macrophage-like cells", "assay": "LPS/IFNγ-mediated cytokine secretion from THP-1 derived macrophage-like cells (MSD multiplex, ELISA)", "type": "cell-based", "details": "2 h before LPS/IFNγ for 5 h", "experimental": "as §1\nIn-vitro examination of the impact of L-glutamic acid and pyruvate on myeloid inflammation. THP1 cells were plated in 24-well plates at a density of 7×10^5 cells per well. To differentiate them into macrophages-like, 100 nM of PMA (Sigma catalog #P8139) was added and incubated for 72 hours. After incubation, media was aspirated, and each well was gently washed twice with R10 media. Cells were then rested for 24 hours on R10 media without PMA. After 24 hours, cells were washed again with serum-free RPMI 1640 media and kept on this media for the rest of experiment. Macrophage-like THP1 cells were pre-incubated with L-glutamic acid (5 mM) or Sodium Pyruvate solution (2 mM, Sigma catalog #S8636-100 ml) for 2 hours before stimulating with Escherichia coli serotype O127:B8 LPS (50 ng/ml; Sigma catalog #L3129-10MG) and IFNγ (10 ng/ml; R&D Systems catalog #285-IF-100, respectively). After 5 hours of incubation with LPS/IFNγ, culture supernatants were collected for cytokine quantitation. Supernatant levels of IL-10, IL-12p70, IL-13, IL-1β, IL-2, IL-4, IL-6, and IL-8 were determined using U-PLEX Proinflam Combo 1 (Meso Scale Diagnostic #K15049k-1) according to manufacture. Levels of TNF-α were quantified using DuoSet ELISA kits (R&D Systems catalog #DY210-05).\nBeyond the direct impact on latent viral reactivation, plasma metabolites may exert effects on myeloid inflammation, and such effects may underlie HIV control during ATI. This possibility was tested by examining the effects of L-glutamic acid and pyruvate on lipopolysaccharides (LPS)-mediated secretion of pro-inflammatory cytokines from THP-1 derived macrophage-like cells. These cells are characterized by high basal glycolytic activity, which closely reflects the Warburg-like phenotype observed in HIV-infected individuals37. […] Cells were treated with L-glutamic acid, pyruvate, or appropriate controls for 2 h before stimulating with LPS and IFNγ for 5 h (FIG. 2D)."}, "[4]": {"details": "L-glutamic acid 5 mM with stimuli"}, "[5]": {"details": "L-glutamic acid 5 mM, 24 hours, vs stimuli alone"}, "[6]": {"details": "pyruvate 2 mM, listed as Pyruvate"}},
  "data": [
    {"smiles": "N[C@@H](CCC(=O)O)C(=O)O", "note": "[L-glutamic acid]", "values": [
      {"measurement": "Cell viability (LIVE/DEAD aqua staining)", "setting": "[1]; [4]", "result": "without impacting viability"},
      {"measurement": "PMA/ionomycin-induced reactivation of latent HIV (GFP MFI)", "setting": "[1]; [5]", "result": "significantly inhibited"},
      {"measurement": "αCD3/αCD28-induced reactivation of latent HIV (GFP MFI)", "setting": "[1]; [5]", "result": "significantly inhibited"},
      {"measurement": "Cell viability (LIVE/DEAD aqua staining)", "setting": "[2]; [4]", "result": "without impacting viability"},
      {"measurement": "PMA/ionomycin-induced reactivation of latent HIV (GFP MFI)", "setting": "[2]; [5]", "result": "inhibited"},
      {"measurement": "TNFα-induced reactivation of latent HIV (GFP MFI)", "setting": "[2]; TNFα 10 ng/ml, L-glutamic acid 5 mM, 24 hours", "result": "inhibited"},
      {"measurement": "LPS/IFNγ-mediated IL-6 secretion", "setting": "[3]; L-glutamic acid 5 mM", "result": "significantly inhibited"},
      {"measurement": "LPS/IFNγ-mediated TNFα secretion", "setting": "[3]; L-glutamic acid 5 mM", "result": "significantly inhibited"},
      {"measurement": "LPS/IFNγ-mediated anti-inflammatory IL-10 production", "setting": "[3]; L-glutamic acid 5 mM", "result": "significantly increased"}
    ]},
    {"smiles": "CC(=O)C(=O)O", "note": "[pyruvate, Pyruvic acid]", "values": [
      {"measurement": "LPS/IFNγ-mediated IL-6 secretion", "setting": "[3]; pyruvate 2 mM", "result": "increased"},
      {"measurement": "LPS/IFNγ-mediated TNFα secretion", "setting": "[3]; pyruvate 2 mM", "result": "increased"},
      {"measurement": "LPS/IFNγ-mediated IL-6 secretion", "setting": "[3]; [6]", "result": "significantly increased"},
      {"measurement": "LPS/IFNγ-mediated TNFα secretion", "setting": "[3]; [6]", "result": "significantly increased"}
    ]}
  ]
}
